Laboratory results reported in US6461997B1, “Triazole sulfones having herbicidal activity” (Monsanto Technology LLC, priority 1999, dated 2002).

Key:
[1] = system: AGRRE (quackgrass (seedling)); assay: Post-emergence herbicidal activity, cool season; assay type: in vivo, Elymus repens; conditions: abraded plants sprayed at 300, 100, 30 and 10 g/ha; about 14 days after treatment
Method: (§1) In another set of tests, the post-emergence activity of compounds of this invention was evaluated on the cool season species listed above. The following procedure was used.
(§2) A pre-prepared topsoil mixture (described above) was placed in a pot and compacted to a depth of 1.0 to 1.25 cm from the top of the pot. Seeds of each of several monocotyledonous and dicotyledonous annual plant species were placed on top of the soil. The seeds were covered with a mixture of 50% topsoil and 50% Rediearth™ in sufficient quantity to level-fill the pots. The pots were then placed on a greenhouse bench and subirrigated as needed.
(§3) When plants growing from the seeds had emerged and reached a suitable growth stage for post-emergence treatment, typically 9 to 14 days after planting, above-ground parts of the plants were subjected to a pre-treatment involving abrasion to create greater opportunity for foliar uptake of subsequently applied compounds. Abrasion was performed using garnet 200w particles applied with a Sears Craftsman hand-held sandblaster operated at approximately 850 kPa (50 psig) pressure.
(§4) A known amount of each test compound dissolved or suspended in an appropriate organic solvent was diluted with a 50:50 mix of acetone and water and applied to the plants by spraying with a standard spray nozzle in a spray volume of […] at a spray pressure of 511 kPa (30 psig). Only the compounds of Examples 1, 8-15 and 17-22 were included in post-emergence tests. Application rates for these compounds were 300, 100, 30 and 10 g/ha. Control plants were abraded but not sprayed.
(§5) After treatment the plants were placed in a greenhouse with an 18/13° C. day/night temperature regime and were subsequently watered as needed for growth. Approximately 14 days after treatment, the plants were observed and herbicidal efficacy recorded as percent inhibition by comparison with control plants. GR80 values were assigned for each compound as described above for the pre-emergence tests.

AVEFA (wild oat) = assay: Post-emergence herbicidal activity, cool season; assay type: in vivo, Avena fatua; conditions: abraded plants sprayed at 300, 100, 30 and 10 g/ha; about 14 days after treatment
Method: as §1, §2, §3, §4, §5

SETVI (green foxtail) [2] = assay: Post-emergence herbicidal activity, cool season; assay type: in vivo, Setaria viridis; conditions: abraded plants sprayed at 300, 100, 30 and 10 g/ha; about 14 days after treatment
Method: as §1, §2, §3, §4, §5

STEME (common chickweed) = assay: Pre-plant incorporated (PPI) herbicidal activity, cool season; assay type: in vivo, Stellaria media; conditions: for PPI activity GR80, STEME: pre-plant incorporated, lowest tested rate with 80% or greater inhibition, about 14 days
Method: (§6) In another set of tests, the pre-plant incorporated (PPI) activity of compounds of this invention was evaluated on the same species as for the pre-emergence tests described above. In the PPI tests the following procedure, designed to simulate PPI application, was used.
(§7) A pre-prepared topsoil mixture (described above) was placed in a pot and compacted to a depth of 1.0 to 1.25 cm from the top of the pot. Seeds of each of several monocotyledonous and dicotyledonous annual plant species were placed on top of the soil. A sufficient quantity of soil to cover the seeds and level fill the pot was weighed into an open container. A known amount of the test compound was dissolved or suspended in an organic solvent and applied by spraying to this cover soil. The cover soil was thoroughly mixed to distribute the test compound throughout the cover soil, and was then applied as a cover layer over the seeds. Untreated soil was used as a cover layer for control pots. After treatment the plants were placed in a greenhouse where they received 0.64 cm of overhead irrigation. All subsequent watering consisted of a light overhead mist and/or subirrigation as needed for germination and growth. Tables 9 and 10 below relate to warm season plant species which were placed after pre-emergence treatment in a greenhouse with a 30/21° C. day/night temperature regime. Tables 11 and 12 below relates to cool season plant species placed after pre-emergence treatment in a greenhouse or growth chamber with an 18/13° C. day/night temperature regime. Only the compounds of Examples 1, 6, 8, 11, 13 and 15-20 were included in PPI tests.
(§8) Approximately 14 days after planting and treating, the plants were observed and herbicidal efficacy recorded as percent inhibition by comparison with untreated plants.

DIGSA (large crabgrass) = assay: Pre-emergence herbicidal activity, warm season; assay type: in vivo, Digitaria sanguinalis; conditions: for inhibition at 10 g/ha / inhibition at 30 g/ha / inhibition at 100 g/ha / inhibition at 300 g/ha / inhibition at 900 g/ha: Digitaria sanguinalis, pre-emergence application, read-out: Percent inhibition, weed DIGSA; for Pre-emergence activity (GR80) DIGSA: GR80 = lowest tested rate (300, 100, 30, 10 g/ha) with 80% or greater inhibition, approx. 14 days after treating, 30/21° C.
Outline: (§9)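 Seeds sown in sterilised fertilised topsoil received surface-applied compound in 50:50 acetone/water, typically at 300, 100, 30 and 10 g/ha, then greenhouse-grown at 30/21° C (warm-season species) or 18/13° C (cool-season species). Percent inhibition versus untreated plants was scored at about 14 days, giving GR80; an asterisk marks activity short of 80% at the top rate.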

SETVI (green foxtail) [3] = assay: Pre-emergence herbicidal activity, cool season; assay type: in vivo, Setaria viridis; conditions: GR80 = lowest tested rate (300, 100, 30, 10 g/ha) with 80% or greater inhibition; approx. 14 days after treating; 18/13° C.
Outline: as §9

[4] = system: AEGCY (jointed goatgrass); assay: Pre-plant incorporated (PPI) herbicidal activity, cool season; assay type: in vivo, Aegilops cylindrica; conditions: for PPI activity GR80, AEGCY: pre-plant incorporated, lowest tested rate with 80% or greater inhibition, about 14 days
Method: as §6, §7, §8

POLCO (wild buckwheat) = assay: Pre-emergence herbicidal activity, cool season; assay type: in vivo, Polygonum convolvulus; conditions: lowest tested rate with 80% or greater inhibition; rates 300, 100, 30, 10 g/ha; about 14 days
Outline: as §9

[5] = weed, PPI application, 100 g/ha
[6] = weed, PPI application, 300 g/ha
[7] = weed, PPI application, 900 g/ha

| Structure (SMILES) | Post-emergence activity GR80, AGRRE [1] | Post-emergence activity GR80, AVEFA (AVEFA (wild oat)) | Post-emergence activity GR80, SETVI (SETVI (green foxtail) [2]) | PPI activity GR80, STEME (STEME (common chickweed)) | Pre-emergence activity (GR80) DIGSA (DIGSA (large crabgrass)) [g/ha] | Pre-emergence activity (GR80) SETVI (SETVI (green foxtail) [3]) [g/ha] | PPI activity GR80, AEGCY [4] | Pre-emergence activity GR80, POLCO (POLCO (wild buckwheat)) | Percent inhibition STEME (STEME (common chickweed); weed, PPI application, 30 g/ha) [%] | Percent inhibition STEME (STEME (common chickweed); [5]) [%] | Percent inhibition STEME (STEME (common chickweed); [6]) [%] | Percent inhibition STEME (STEME (common chickweed); [7]) [%] | Percent inhibition AEGCY ([4]; weed, PPI application, 30 g/ha) [%] | Percent inhibition AEGCY [4, 5] [%] | Percent inhibition AEGCY [4, 6] [%] | Percent inhibition AEGCY [4, 7] [%] | Percent inhibition STEME (STEME (common chickweed); weed, PPI application, 10 g/ha) [%] | Percent inhibition AEGCY ([4]; weed, PPI application, 10 g/ha) [%] | other results |
| --- | --- | --- | --- | --- | --- | --- | --- | --- | --- | --- | --- | --- | --- | --- | --- | --- | --- | --- | --- |
| CCN(CC)C(=O)n1cnc(S(=O)(=O)C(F)(F)Br)n1 [Example 1, 3-(bromodifluoromethylsulfonyl)-1-(N,N-diethylcarbamoyl)-1,2,4-triazole] | [empty] | [empty] | [empty] | 100 g/ha | 30 | 30 | [empty] | [empty] | – | – | – | – | – | – | – | – | – | – | inhibition at 30 g/ha (STEME (common chickweed); Stellaria media, weed, PPI application, 30 g/ha, read-out: Percent inhibition STEME): 60%; inhibition at 100 g/ha (STEME (common chickweed); Stellaria media, weed, PPI application, 100 g/ha, read-out: Percent inhibition STEME): 100%; inhibition at 300 g/ha (STEME (common chickweed); Stellaria media, weed, PPI application, 300 g/ha, read-out: Percent inhibition STEME): 99%; inhibition at 900 g/ha (STEME (common chickweed); Stellaria media, weed, PPI application, 900 g/ha, read-out: Percent inhibition STEME): 95%; inhibition at 10 g/ha (DIGSA (large crabgrass)): 0%; inhibition at 30 g/ha (DIGSA (large crabgrass)): 60%; inhibition at 100 g/ha (DIGSA (large crabgrass)): 100%; inhibition at 300 g/ha (DIGSA (large crabgrass)): 100%; inhibition at 900 g/ha (DIGSA (large crabgrass)): 100%; inhibition at 30 g/ha ([4]; Aegilops cylindrica, weed, PPI application, 30 g/ha, read-out: Percent inhibition AEGCY): 0%; inhibition at 100 g/ha ([4]; Aegilops cylindrica, weed, PPI application, 100 g/ha, read-out: Percent inhibition AEGCY): 0%; inhibition at 300 g/ha ([4]; Aegilops cylindrica, weed, PPI application, 300 g/ha, read-out: Percent inhibition AEGCY): 40%; inhibition at 900 g/ha ([4]; Aegilops cylindrica, weed, PPI application, 900 g/ha, read-out: Percent inhibition AEGCY): 60% |
| CCN(CC)C(=O)n1cnc(S(=O)(=O)C(F)(F)F)n1 [Example 2] | – | – | – | – | 300 | 30 | – | [empty] | 60 | 90 | 80 | 95 | 0 | 20 | 20 | 70 | – | – | – |
| CCN(CC)C(=O)n1cnc(S(=O)(=O)C(F)(F)Cl)n1 [Example 3] | – | – | – | – | 100 | 100 | – | [empty] | 60 | 80 | 100 | 100 | 0 | 50 | 40 | 90 | – | – | – |
| CCN(CC)C(=O)n1cnc(S(=O)(=O)C(F)(F)C(F)(F)Br)n1 [Example 4] | – | – | – | – | 100 | 30 | – | 300 g/ha | 10 | 60 | 80 | 95 | 0 | 30 | 50 | 30 | – | – | – |
| CCN(CC)C(=O)n1cnc(S(=O)(=O)C(F)(F)C(=O)c2ccccc2)n1 [Example 6] | – | – | – | 100 g/ha | 300 | 300 | [empty] | 300 g/ha | – | – | – | – | – | – | – | – | – | – | – |
| CCN(CC)C(=O)n1cnc(S(=O)(=O)C(F)(F)SCC(=O)OC)n1 [Example 11] | [empty] | [empty] | [empty] | 300 g/ha | – | 300 | [empty] | [empty] | 0 | 0 | 0 | 30 | 0 | 0 | 0 | 10 | 0 | 0 | – |
| CCN(CC)C(=O)n1cnc(S(=O)(=O)C(F)(F)SCCOC)n1 [Example 13] | [empty] | [empty] | [empty] | * (activity observed, at least at highest rate, but <80% inhibition) | – | 100 | [empty] | [empty] | 0 | 20 | 100 | 99 | 0 | 0 | 60 | 40 | 0 | 0 | – |
| CCN(CC)C(=O)n1cnc(S(=O)(=O)C(F)(F)C(F)(F)SC)n1 [Example 14] | [empty] | [empty] | [empty] | – | 100 | 30 | – | 300 g/ha | – | – | – | – | – | – | – | – | – | – | – |
| CCN(CC)C(=O)n1cnc(S(=O)(=O)C(F)F)n1 [Example 15, 1-(N,N-diethylcarbamoyl)-3-(difluoromethylsulfonyl)-1,2,4-triazole] | [empty] | [empty] | [empty] | 300 g/ha | 30 | – | [empty] | – | – | – | – | – | – | – | – | – | – | – | inhibition at 10 g/ha (DIGSA (large crabgrass)): 70%; inhibition at 30 g/ha (DIGSA (large crabgrass)): 40%; inhibition at 100 g/ha (DIGSA (large crabgrass)): 80%; inhibition at 300 g/ha (DIGSA (large crabgrass)): 100%; inhibition at 900 g/ha (DIGSA (large crabgrass)): 100% |
| CCN(CC)C(=O)n1cnc(S(=O)(=O)C(F)(F)C(F)F)n1 [Example 16] | – | – | – | 300 g/ha | 30 | 300 | 300 g/ha | [empty] | 75 | 60 | 60 | 95 | 0 | 0 | 20 | 60 | 40 | 0 | – |
